Reference: US8889699B2, “5-fluorouracil derivative” (Delta-Fly Pharma, Inc., priority 2009, dated 2014)

Legend:
[1] = test system: Human colon cancer strain (KM12C)
Description: (§1) The resulting product was stirred with a stirrer at room temperature for about 10 minutes. […] The proliferated strain was extracted, cut into about 2 to 3 mm square pieces with scissors in physiological saline, and subcutaneously inoculated to the right axillary region of rats of the same strain, 5 to 6 weeks of age, using a transplantation needle. […] Then, drug administration was initiated from the next day. Each of the test liquids shown in (a) to (b) above was administered orally to the rats in each of the test drug groups using a sonde for oral administration at a dose of 0.1 ml per 10 g body weight once a day for 14 continuous days. In the same manner as the above, the cancer-bearing rats in the control group were subjected to oral administration of only 0.5% HPMC liquid for 14 continuous days.
(§2) The tumor volume of each rat in each group before the initiation of the treatment, on day 3, day 5, day 8 (1 week after), day 11, and day 15 (2 weeks after), i.e., after termination of the administration, was calculated using Equation 1 below, and respective relative tumor volume (RTV) relative to the tumor volume at the time of initiation of the treatment was calculated. In relation to the antitumor effect, the average value of the tumor proliferation inhibition ratio (IR; %) was calculated from the average tumor volume of each treatment group on day 15 (after termination of the treatment) relative to that of the control group on day 15, using Equation 2. […] Along therewith, a weight change ratio was calculated from the body weight of the rats at the time of the termination of the drug administration relative to the body weight of the rats at the time of the initiation of the administration, using Equation 3. […] A coagulation inhibitor was added to each of the collected blood samples, and the white blood cell count, red blood cell count, and platelet count were measured using a hemocytometer.

[2] = test system: human gastric cancer strain (SC-2)
Description: as §1, §2

DPD = target: T1, DPD (Rattus norvegicus, UniProt O89000); experiment: DPD inhibitory action in vitro (enzyme reaction, tritium-labeled 5-FU as substrate); assay type: biochemical; conditions: Conc. 0.02 μM; Table 5
T1 construct: the obtained supernatant was used as a DPD enzyme solution or an OPRT enzyme solution; from tissue; host or cells: liver of 8-week old SD rat; 105,000 g supernatant of homogenate
T1 sequence (O89000 1-1025): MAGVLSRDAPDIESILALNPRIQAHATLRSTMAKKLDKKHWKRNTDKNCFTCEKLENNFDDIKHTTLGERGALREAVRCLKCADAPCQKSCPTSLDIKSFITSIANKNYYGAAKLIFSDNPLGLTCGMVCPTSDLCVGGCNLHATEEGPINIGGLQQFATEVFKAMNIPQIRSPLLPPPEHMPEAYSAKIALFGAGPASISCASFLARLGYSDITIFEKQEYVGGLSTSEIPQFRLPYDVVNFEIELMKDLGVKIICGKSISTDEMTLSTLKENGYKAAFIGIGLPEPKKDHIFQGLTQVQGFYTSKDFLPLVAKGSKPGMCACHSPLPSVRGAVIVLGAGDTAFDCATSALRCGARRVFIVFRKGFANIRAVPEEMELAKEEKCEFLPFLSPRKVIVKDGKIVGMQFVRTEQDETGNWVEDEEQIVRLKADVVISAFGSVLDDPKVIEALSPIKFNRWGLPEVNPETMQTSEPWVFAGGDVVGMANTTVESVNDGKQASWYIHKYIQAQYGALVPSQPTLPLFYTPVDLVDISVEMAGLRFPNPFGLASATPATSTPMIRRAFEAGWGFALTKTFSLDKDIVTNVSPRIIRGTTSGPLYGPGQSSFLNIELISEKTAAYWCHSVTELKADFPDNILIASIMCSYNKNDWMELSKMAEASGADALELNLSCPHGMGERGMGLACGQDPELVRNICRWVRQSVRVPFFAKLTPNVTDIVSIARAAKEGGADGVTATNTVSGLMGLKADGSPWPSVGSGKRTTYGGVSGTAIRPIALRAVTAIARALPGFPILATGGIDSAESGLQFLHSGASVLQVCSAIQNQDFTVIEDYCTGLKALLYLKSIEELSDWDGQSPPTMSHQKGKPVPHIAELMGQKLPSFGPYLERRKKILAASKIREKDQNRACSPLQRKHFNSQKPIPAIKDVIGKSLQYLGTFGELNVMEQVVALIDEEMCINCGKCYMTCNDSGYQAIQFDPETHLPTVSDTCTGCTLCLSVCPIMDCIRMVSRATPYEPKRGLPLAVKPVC

[3] = oral, 14 days, Compound I-11 71 to 88 mg/kg/day, S-1 20 to 22.5 mg/kg/day

SMILES	antitumor effect ([1]; oral, 14 days, Compound I-10 51 to 77 mg/kg/day, S-1 15 to 22.5 mg/kg/day, FIG. 2-1)	diarrhea ([1]; rat, in vivo)	platelet count relative to that of the control group ([1]; rat, in vivo)	weight loss ([1]; rat, in vivo)	white blood cell count, reduced to % of that of the control group ([2]; 71 to 88 mg/kg/day orally for 2 weeks, FIG. 1-2)	platelet count relative to that of the control group ([2]; oral, 2 weeks, Compound I-11 71 to 88 mg/kg/day, S-1 20 to 22.5 mg/kg/day, FIG. 1-2)	toxic death ([2]; oral, 14 days, Compound I-11 71 to 88 mg/kg/day)	diarrhea [2, 3]	weight loss [2, 3]	antitumor effect ([2]; oral, 14 days, Compound I-11 71 to 88 mg/kg/day, S-1 20 to 22.5 mg/kg/day, FIG. 1-1)	DPD Inhibitory Activity: Activity (DPD) [nmol/mL/min]	inhibition at 0.02 µM (DPD) [%]
CCOCn1cc(F)c(=O)n(C(=O)c2cccc(C(=O)Oc3cc(OC(=O)c4cc(OC(C)=O)nc(OC(C)=O)c4)c(Cl)cn3)c2)c1=O [Compound I-10, 3-{3-[4-(2,6-diacetyloxyisonicotinoyloxy)-5-chloro-2-pyridyloxycarbonyl]benzoyl}-1-ethoxymethyl-5-fluorouracil]	high antitumor effects in a dose-dependent manner	not observed	the same as that of the control group	not observed	–	–	–	–	–	–	–	–
CCOCn1cc(F)c(=O)n(C(=O)c2cccc(C(=O)Oc3cc(OC(=O)c4cc(OC(=O)CC)nc(OC(=O)CC)c4)c(Cl)cn3)c2)c1=O [Compound I-11, 3-{3-[4-(2,6-dipropionyloxyisonicotinoyloxy)-5-chloro-2-pyridyloxycarbonyl]benzoyl}-1-ethoxymethyl-5-fluorouracil]	–	–	–	–	about 50%	almost the same as that of the control group	not observed	not observed	not observed	high antitumor effects in a dose-dependent manner	0.705	0
